Data as given in patent US6596726B1, “Tricyclic compounds capable of inhibiting tyrosine kinases of the epidermal growth factor receptor family” (Warner Lambert Company, priority 1994, dated 2003).

Legend:
[1] = tested on: erbB-2, 3, 4 autophosphorylation in SK-BR-3 breast tumor cells; assay: Inhibition of conditioned media-induced autophosphorylation in SK-BR-3 breast tumor cells; assay type: cell-based, human; settings: SK-BR-3 cells, read-out: SKBR-3 IC50
Experimental: Cells were grown to 100% confluency in 100 mm Petrie dishes (Corning). After the cells were treated for 5 minutes with either EGF (epidermal growth factor), PDGF, or bFGF (basic fibroblast growth factor) (20 ng/ml) or 1 ml of conditioned media from MDA-MB-231 cells, the media was removed and the monolayer scraped into 1 ml of ice cold lysis buffer (50 mM Hepes, pH 7.5, 150 mM NaCl, 10% glycerol, 1% triton X-100, 1 mM EDTA, 1 mM EGTA, 10 mM sodium pyrophosphate, 30 mM p-nitrophenyl phosphate, 1 mM orthovanadate, 50 mM sodium fluoride, 1 mM phenylmethylsulfonylfluoride, 10 μg/ml of aprotinin, and 10 μg/ml of leupeptin). The lysate was transferred to a microfuge tube (small centrifuge that holds 1-2 ml plastic centrifuge tubes), allowed to sit on ice 15 minutes and centrifuged 5 minutes at 10,000×g. The supernatant was transferred to a clean microfuge tube and 5 μg of antibody was added to designated samples. The tubes were rotated for 2 hours at 4° C. after which 25 μl of protein A sepharose was added and then rotation continued for at least 2 more hours. The protein A separose was washed 5 times with 50 mM Hepes, pH 7.5, 150 mM NaCl, 10% glycerol and 0.02% sodium azide. The precipitates were resuspended with 30 μl of Laemlli buffer (Laemmli, NATURE, […], pp. 680-685, 1970), heated to 100° C. for 5 minutes and centrifuged to obtain the supernatant. Whole cell extracts were made by scraping cells grown in the wells of 6 well plates into 0.2 ml of boiling Laemmli buffer. The extract were transferred to a microfuge tube and heated to 100° C. for 5 minutes. The entire supernatant from the immunoprecipitation or 35 μl of the whole cell extract was loaded onto a polyacrylamide gel (4-20%) and electrophoresis carried out by the method of Laemlli (Laemmli, 1970). Proteins in the gel were electrophoretically transferred to nitrocellulose and the membrane was washed once in 10 mM Tris buffer, pH 7.2, 150 mM NaCl, 0.01% Azide (TNA) and blocked overnight in TNA containing 5% bovine serum albumin and 1% ovalbumin (blocking buffer). The membrane was blotted for 2 hours with the primary antibody (1 μg/ml in blocking buffer) and then washed 2 times sequentially in TNA, TNA containing 0.05% Tween-20 and 0.05% Nonidet P-40 (commercially available detergent) and TNA. The membranes were then incubated for 2 hours in blocking buffer containing 0.1 μCi/ml of [^125I] protein A and then washed again as above. After the blots were dry they were loaded into a film cassette and exposed to X-AR X-ray film for 1-7 days. Protein A is a bacterial protein that specifically bonds certain IgG subtypes and is useful in binding to and isolating antibody-antigen complexes.
Inhibition of EGF-Induced Autophosphorylation in A431 Epidermoid Carcinoma Cells and Conditioned Media-Induced Autophosphorylation in SK-BR-3 Breast Tumor Cells by Compounds of the Current Invention

[2] = tested on: B104-1-1 NIH-3T3 mouse fibroblasts transfected by the neu oncogene; assay: Growth inhibition assay (antiproliferative), B104-1-1; assay type: cell-based; settings: 72 h, B104-1-1 cells, 3 days
Description: Antiproliferative Properties of Tyrosine Kinase Inhibitors IC50 (nM)
B104-1-1—NIH-3T3 mouse fibroblasts transfected by the neu oncogene: Stern et al., Science, 234, pp. 321-324 (1987);

[3] = tested on: SK-BR-3 human breast carcinoma overexpressing erbB-2 and erbB-3; assay: Growth inhibition assay (antiproliferative), SK-BR-3; assay type: cell-based; settings: 72 h, SK-BR-3 cells, 3 days
Experimental: Cells (2×10^4) were seeded in 24-well plates (1.7×1.6 cm, flat bottom) in two mls of medium with or without various concentrations of drug. Plates were incubated for 3 days at 37° in a humidified atmosphere containing 5% CO2 in air. Cell growth was determined by cell count with a Coulter Model AM electronic cell counter (Coulter Electronics, Inc., Hialeah, Fla.).

IC50 [1]: 55 nM | IC50 [3]: 200 nM
Structure (SMILES): Brc1cccc(Nc2ncnc3cc4[nH]cnc4cc23)c1 [Example 6, 4-(3-Bromoanilino)imidazolo[4,5-g]quinazoline]
IC50 [2]: 3200 nM
